Measurements published in article PMC9619929, “Conditional Antimicrobial Peptide Therapeutics” (ACS Nano, 2022).

Key:
Toxicity evaluation = assay type: in vivo, mouse
Procedure: ABD-AMP conjugates at different doses were intravenously administered to CD-1 mice. The mice were closely monitored for 24 h before euthanization unless significant morbidity was observed that necessitated early euthanization. Blood samples were drawn via cardiac puncture and dispensed into serum separator tubes (BD Microtainer). The samples were left to clot for at least 30 min and spun at 15 000 rcf for 1.5 min to separate serum. The serum samples were frozen in a −20 °C freezer and submitted for serum chemistry analysis by MIT Diagnostic Laboratory (MIT Division of Comparative Medicine). Serum levels of pro-inflammatory cytokine IL-6 and TNF-α were quantified using ELISA MAX standard sets (BioLegend, CA, U.S.A.) following the manufacturer’s protocol. Organs were harvested, fixed in 10% formalin at RT for 24 h, sectioned into 5 μm slices, and stained with H&E for analysis. The slides were evaluated by a veterinary pathologist blind to the treatment groups and were digitized using a Pannoramic digital slide scanner at 20× magnification.

[1] = mouse, in vivo, iv
Procedure: All animal studies were approved by the Massachusetts Institute of Technology’s Committee on Animal Care (MIT protocol 0619-034-22). CD-1 mice (11–12 weeks old) were rendered neutropenic by intraperitoneal injections of cyclophosphamide at 4 d (150 mg/kg) and 1 d (100 mg/kg) prior to infection. PAO1 inoculation was performed by intratracheal instillation of PAO1 suspension (2 × 10^5 cfu in 50 μL PBS) via a 22G blunt-end catheter (EXCEL International). For BALF collection, the mice were first euthanized. An incision into the trachea was made with a needle puncture where lavage was performed with PBS (1 mL) via a catheter-fitted syringe. BALFs were centrifuged to remove cells, aliquoted, and stored in a −20 °C freezer.
ABD-AMP-Cy7 conjugates (15 nmol) were intravenously administered at 6 h post infection. The mice were euthanized 2 h after and organs were harvested for imaging with an Odyssey CLx imager. After imaging, organs were homogenized in PBS supplemented with Halt protease inhibitor cocktail (ThermoFisher Scientific, MA, U.S.A.) using a gentleMAC dissociator (Miltenyi Biotec, CA, U.S.A.). The homogenates were pelleted and the supernatants were used for SDS-PAGE analysis.

Pharmacokinetics study = assay type: in vivo, mouse; conditions: 15 nmol IV, CD-1 mice, blood, n = 4
Procedure: ABD-AMP-Cy7 conjugates (15 nmol) were intravenously administered to CD-1 mice. At different time intervals, blood samples (5 μL) were collected via saphenous vein bleeding using heparin-coated capillary tubes. Blood samples were diluted 10-fold in PBS supplemented with Halt protease inhibitor cocktail and EDTA and centrifuged to remove cells. The supernatants were used to quantify conjugate concentration via SDS-PAGE analysis.

| Molecule | Signs of distress over the observation period (Toxicity evaluation; 10 mg/kg (AMP eq) IV, 24 h) | Histology evaluation of organs (H&E) (Toxicity evaluation; 10 mg/kg (AMP eq) IV, 24 h, blinded veterinary pathologist, n = 3) | Mice that did not survive to the study end point (Toxicity evaluation; 10 mg/kg IV, 24 h) | Serum pro-inflammatory cytokine IL-6 (Toxicity evaluation; 10 mg/kg IV, ELISA) | Serum levels of ALT, AST, BUN and creatinine (Toxicity evaluation; IV, 5 and 10 mg/kg AMP eq, 24 h, (D)Pex result at 10 mg/kg, n = 3–5) | Maximum tolerated dose (MTD) (Toxicity evaluation; IV, CD-1 mice, monitored 24 h) | AUC ((D)Pex-Cy7), kidneys [1] | AUC ((D)Pex-Cy7), liver [1] | AUC ((D)Pex-Cy7), lungs [1] | AUC ((D)Pex-Cy7), spleen [1] | AUC (Pharmacokinetics study; SDS-PAGE Cy7 quantification) | t1/2,α (Pharmacokinetics study) | t1/2,β (Pharmacokinetics study) |
| --- | --- | --- | --- | --- | --- | --- | --- | --- | --- | --- | --- | --- | --- |
| CC[C@@H](C)[C@@H](NC(=O)CN)C(=O)NCC(=O)N[C@H](CCCCN)C(=O)N[C@H](Cc1ccccc1)C(=O)N[C@H](CC(C)C)C(=O)N[C@H](CCCCN)C(=O)N[C@H](CCCCN)C(=O)N[C@H](C)C(=O)N[C@H](CCCCN)C(=O)N[C@H](CCCCN)C(=O)N[C@H](Cc1ccccc1)C(=O)NCC(=O)N[C@H](CCCCN)C(=O)N[C@H](C)C(=O)N[C@H](Cc1ccccc1)C(=O)N[C@@H](C(=O)N[C@H](CCCCN)C(=O)N[C@@H](C(=O)N[C@H](CC(C)C)C(=O)N[C@H](CCCCN)C(=O)N[C@H](CCCCN)C(N)=O)[C@H](C)CC)C(C)C [(D)Pex] | signs of distress | Pathological damage was observed in kidneys and spleen | 3 of 5 | significantly elevated | elevated beyond a normal reference range | 5 mg/kg | – | – | – | – | – | – | – |
| Azidoacetyl–GiGkflkkakkfGkafvkilkk–K(Cy7)–CONH2 [(D)Pex-Cy7, free unconjugated Cy7-labelled (D)Pex control] | – | – | – | – | – | – | 14.1 % ID*h/g | 112 % ID*h/g | 5.29 % ID*h/g | 23.5 % ID*h/g | 2.08 µM·h | 35.3 min | 35.6 min |
